# Patent US11186576B2, “Pyrazolo[1,5-A][1,3,5]triazine and pyrazolo[1,5-A]pyrimidine derivatives as CDK inhibitors” (Aurigene Discovery Technologies Limited, priority 2015, dated 2021)
# pEC50, pIC50: −log10 of the molar value.
# Columns and labels:
# [1] = tested on: RNA polymerase II CTD phosphorylation (MDA-MB-231/NCI-H358 cells); experiment: Inhibition of RNA polymerase II CTD phosphorylation in cell western assay; assay type: cell-based; conditions: 4 hours incubation, phospho RNA Pol II Ser-5 or Ser-2
# How it was run: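 MDA-MB-231 or NCI-H358 cells treated 4 h at 37 °C with 3-fold dilutions from 10 μM, then fixed and immunostained for phospho-Ser5 or phospho-Ser2 RNA Pol II CTD. Europium-labelled secondaries give the time-resolved fluorescence read-out, normalised to Hoechst; EC50 reported in binned ranges.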
# CDK7/CycH/MNAT1 = CDK7/CycH/MNAT1 (Homo sapiens (Human), UniProt P50613); experiment: Biochemical assay for CDK7 (TR-FRET kinase assay); conditions: 60 min pre-incubation, 1 mM ATP; for inhibition at 10 µM: 10 μM compound, read-out: % inhibition @ 10 μM; for pIC50: read-out: IC50
# How it was run: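 CDK7/CycH/MNAT1 (5 nM) was preincubated with compound for 60 min at room temperature, then reacted for 60 min with 100 nM ULight-MBP and 1 mM ATP in 1% DMSO. Irreversibility was probed with 20, 60 and 180 min preincubations.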
# Chain of CDK7/CycH/MNAT1 (P50613 whole entry): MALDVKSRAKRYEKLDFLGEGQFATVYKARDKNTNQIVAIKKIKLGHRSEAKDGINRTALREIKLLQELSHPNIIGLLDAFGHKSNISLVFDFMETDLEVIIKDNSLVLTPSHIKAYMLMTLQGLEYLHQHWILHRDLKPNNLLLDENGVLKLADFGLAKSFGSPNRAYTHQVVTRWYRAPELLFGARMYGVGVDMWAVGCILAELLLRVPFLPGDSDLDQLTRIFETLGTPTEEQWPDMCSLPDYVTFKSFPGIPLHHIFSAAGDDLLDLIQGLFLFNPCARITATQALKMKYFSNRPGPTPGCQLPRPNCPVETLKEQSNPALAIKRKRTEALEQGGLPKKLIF
# Chain of CDK7/CycH/MNAT1 (P51946 whole entry partner): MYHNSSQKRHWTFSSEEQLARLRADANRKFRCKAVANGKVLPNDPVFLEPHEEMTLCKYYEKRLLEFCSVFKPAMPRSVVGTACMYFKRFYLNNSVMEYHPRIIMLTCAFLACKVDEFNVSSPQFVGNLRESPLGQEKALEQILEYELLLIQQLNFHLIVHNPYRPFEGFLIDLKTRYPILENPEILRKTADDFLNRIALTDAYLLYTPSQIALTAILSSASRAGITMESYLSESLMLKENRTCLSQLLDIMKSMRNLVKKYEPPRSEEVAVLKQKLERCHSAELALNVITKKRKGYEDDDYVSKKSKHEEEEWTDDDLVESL
# Chain of CDK7/CycH/MNAT1 (P51948 whole entry partner): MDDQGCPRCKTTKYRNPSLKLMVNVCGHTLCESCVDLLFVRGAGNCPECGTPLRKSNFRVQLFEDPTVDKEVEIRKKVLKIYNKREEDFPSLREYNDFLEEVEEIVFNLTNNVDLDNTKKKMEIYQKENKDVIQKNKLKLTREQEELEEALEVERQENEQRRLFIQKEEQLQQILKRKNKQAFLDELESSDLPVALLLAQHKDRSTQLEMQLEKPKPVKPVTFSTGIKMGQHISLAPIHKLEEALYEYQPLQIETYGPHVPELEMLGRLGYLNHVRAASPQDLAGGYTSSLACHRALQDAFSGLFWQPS
pEC50 [1],inhibition at 10 µM (CDK7/CycH/MNAT1),pIC50 (CDK7/CycH/MNAT1),SMILES
< 5.00,94%,> 6.52,"CC(C)c1cnn2c(NCc3ccc(F)c(NC(=O)[C@H]4CC[C@@H](NC(=O)/C=C/CN(C)C)CC4)c3)nc(OC3CCN(C)CC3)nc12 [Compound 124, (1,4-cis)-4-((E)-4-(dimethylamino)but-2-enamido)-N-(2-fluoro-5-(((8-isopropyl-2-((1-methylpiperidin-4-yl)oxy)pyrazolo[1,5-a][1,3,5]triazin-4-yl)amino)methyl)phenyl)cyclohexane-1-carboxamide]"
≥ 6.00,86%,> 6.52,"C=CC(=O)Nc1ccc(C(=O)Nc2cccc(Nc3nc(OC4CCN(C)CC4)nc4c(C(C)C)cnn34)c2)cc1 [Compound 125, 4-acrylamido-N-(3-((8-isopropyl-2-((1-methylpiperidin-4-yl)oxy)pyrazolo[1,5-a][1,3,5]triazin-4-yl)amino)phenyl)benzamide]"
5.00 to 6.00,93%,> 6.52,"C=CC(=O)N1CCC(NC(=O)c2cccc(Nc3nc(OC4CCN(C)CC4)nc4c(C(C)C)cnn34)c2)CC1 [Compound 128, N-(1-acryloylpiperidin-4-yl)-3-((8-isopropyl-2-((1-methylpiperidin-4-yl)oxy)pyrazolo[1,5-a][1,3,5]triazin-4-yl)amino)benzamide]"
5.00 to 6.00,94%,> 6.52,"C=CC(=O)N1CCCC(NC(=O)c2cccc(Nc3nc(OC4CCN(C)CC4)nc4c(C(C)C)cnn34)c2)C1 (stereo not drawn) [Compound 129, N-(1-acryloylpiperidin-3-yl)-3-((8-isopropyl-2-((1-methylpiperidin-4-yl)oxy)pyrazolo[1,5-a][1,3,5]triazin-4-yl)amino)benzamide]"
< 5.00,90%,> 6.52,"CC(C)c1cnn2c(Nc3cccc(NC(=O)[C@H]4CC[C@H](NC(=O)/C=C/CN(C)C)CC4)c3)nc(OC3CCN(C)CC3)nc12 [Compound 132, (1,4-Trans)-4-((E)-4-(dimethylamino)but-2-enamido)-N-(3-((8-isopropyl-2-((1-methylpiperidin-4-yl)oxy)pyrazolo[1,5-a][1,3,5]triazin-4-yl)amino)phenyl)cyclohexane-1-carboxamide]"
5.00 to 6.00,97%,> 6.52,"CC(C)c1cnn2c(Nc3cccc(C(=O)NC4CCN(C(=O)/C=C/CN(C)C)CC4)c3)nc(OC3CCN(C)CC3)nc12 [Compound 134, (E)-N-(1-(4-(dimethylamino)but-2-enoyl)piperidin-4-yl)-3-((8-isopropyl-2-((1-methylpiperidin-4-yl)oxy)pyrazolo[1,5-a][1,3,5]triazin-4-yl)amino)benzamide]"

SMILES,pEC50 [1],inhibition at 10 µM (CDK7/CycH/MNAT1),pIC50 (CDK7/CycH/MNAT1)
"CC(C)c1cnn2c(Nc3cccc(NC(=O)C4CCC(NC(=O)/C=C/CN(C)C)CC4)c3)nc(OC3CCN(C)CC3)nc12 (stereo not drawn) [Compound 131, (1s,4s)-4-((E)-4-(dimethylamino)but-2-enamido)-N-(3-((8-isopropyl-2-((1-methylpiperidin-4-yl)oxy)pyrazolo[1,5-a][1,3,5]triazin-4-yl)amino)phenyl)cyclohexane-1-carboxamide]",< 5.00,86%,6.00 to 6.52
